Key:
[1] = target: T1, PtmO5 (Streptomyces platensis, UniProt D8L2V0); assay: type I difference spectra titration, nonlinear regression of A390-A422; type: binding; conditions: 0-5 μM ligand; type I shift 422 to 390 nm; heme site
T1 sequence (D8L2V0 1-430): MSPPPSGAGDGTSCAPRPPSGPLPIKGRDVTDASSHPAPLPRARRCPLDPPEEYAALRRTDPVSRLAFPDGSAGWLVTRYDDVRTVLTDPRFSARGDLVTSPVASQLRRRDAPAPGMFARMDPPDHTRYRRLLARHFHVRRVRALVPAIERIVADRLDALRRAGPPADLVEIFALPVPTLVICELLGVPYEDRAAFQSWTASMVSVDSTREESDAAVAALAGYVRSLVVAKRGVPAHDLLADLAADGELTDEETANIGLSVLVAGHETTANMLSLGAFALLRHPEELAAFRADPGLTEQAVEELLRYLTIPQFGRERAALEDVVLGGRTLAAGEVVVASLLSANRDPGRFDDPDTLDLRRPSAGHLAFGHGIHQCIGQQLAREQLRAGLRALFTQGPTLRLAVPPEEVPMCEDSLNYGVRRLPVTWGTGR

[2] = target: T1, PtmO5; assay: type I binding spectra; conditions: heme site, poor solubility of 4

Kd [1] [nM]	Kd [2] [nM]	Structure (SMILES)
860 ± 70		C[C@@]12CCC[C@@](C)(C(=O)O)[C@H]1CC[C@@]13C[C@@H](CC[C@H]12)[C@](C)(O)C3 [compound 1, (16R)-hydroxy-ent-kauran-19-oic acid]
	750 ± 190	C=C1C[C@@]23CC[C@H]4[C@@](C)(CCC[C@@]4(C)C(=O)O)[C@@H]2CC[C@@H]1C3 [compound 4, ent-kaur-16-en-19-oic acid]

From paper PMC6211292 (Journal of the American Chemical Society, 2018)
